Laboratory results as given in patent US20240094229A1, “CRISPR-CAS /TRANSCRIPTION FACTOR-BASED COMPETITION ASSAY FOR DETECTION OF MOLECULAR ANALYTES” (Arizona Board of Regents on Behalf of Arizona State …, priority 2022, published 2024).
Values joined by “and” are separate entries in the source; they are usually repeats but may differ in a detail not shown here. Equal values may be shown once. Where a name gives a salt, the structure may show the parent alone.

Legend:
Cas12a = assay: Toxicity study for DMSO on Cas12a activation; assay type: biochemical, Lachnospiraceae bacterium; conditions: 0.03% DMSO
Method: The toxicity of solvents on Cas12a activation was tested by titrating in DMSO and monitoring the fluorescence output over two hours. A more significant decrease in activation was observed above 1% DMSO.

TetR [1] = biological target: T1, TetR (Escherichia coli, UniProt P04483); assay: TetR biosensor, lateral flow readout; assay type: biochemical; conditions: for second (test) band on lateral flow strip: TetR biosensor, 20-nt gRNA, 30 minutes cleavage
T1 construct: His tag; made in house; host or cells: E. coli BL21 Star (DE3)
Method: (§1) DNA/TF/small molecule samples were incubated and added to Cas12a reactions containing 106 nM Cas12a, 100 nM gRNA, and 200 nM FAM-[…]-Biotin (SEQ ID NO: 38) or 5′FAM-TTTT(internal T-Biotin)TTTTT-BHQ1 (SEQ ID NO: 38) reporter (IDT). The Cas12a concentration was increased to speed up the reaction time. Samples were incubated for 30 minutes at 37° C. on a thermocycler block. The 10 μl samples were added directly to the dipstick, HybriDetect Universal Lateral Flow Assays from Milenia Biotec (MGHD1) and placed in 100 μl of LF running buffer containing 50% PEG 800. PEG was used to slow capillary flow down, giving reporter strands more time to interact with gold nanoparticle-antibody conjugates before flowing down the assay. This provided cleaner negative results. After 2 minutes, dipsticks were removed and imaged using a cellphone camera.
The trans-cleavage capabilities of Cas12a can cleave any single-stranded DNA in the system, enabling a variety of chemical modifications to be used in the single-stranded reporter. This feature allows for implementation of a visible paper-based lateral flow readout system using reporters with FAM and biotin modifications on either end (19, 21-26). When paired with a lateral flow assay, the fully intact reporter binds to the first line (control line) along with an attached gold nanoparticle/antibody complex, and can be visualized, as shown in FIG. 10. When Cas12a enzyme is active, the reporter is cleaved and the portion containing the gold nanoparticle flows down the assay and can be visualized by the formation of the second band. Thus, the presence of two bands is used to indicate the presence of the target small molecule.
Next, the lateral flow readout was tested by introducing aTc, Doxy, and IPTG to the TetR biosensor. The samples were incubated with Cas12a cleavage mixture containing the 20-nt gRNA. […] Thus, the lateral flow assay can provide a visual readout mechanism for the biosensor, and the assay remains small-molecule specific.
To ensure the biosensor could provide adequate sensitivity, limit of detection experiments were repeated using TetR for detecting aTc and Doxy on the lateral flow assays.

TetR [2] = biological target: T1, TetR; assay: TetR biosensor, Cas12a cleavage reaction with fluorescence readout, detection of aTc and Doxy; assay type: biochemical
Method: (§2) Target and nontarget strands (NTS) were annealed at a 1:2 ratio in 1× TAE+12.5 mM Mg^2+ for 5 minutes at 95° C., then snap cooled. To form the DNA/TF complex, 100 nM dsTarget complexes were incubated with 10 μM corresponding transcription factors (unless otherwise stated) for 15 minutes at 37° C. in incubation buffer (40 mM Tris-HCl 8 mM MgCl2, 20 mM NaCl, pH 8). Small molecules were added next, following the same incubation procedure. Prior to addition, small molecules were suspended in water, DMSO or ethanol.
(§3) To monitor small molecule detection, 2 μl of the DNA/TF or DNA/TF/SM mixture were added to 10 μl total Cas12a cleavage reaction. […] Cleavage reactions were then immediately added to a microplate such as a Corning 384-well Black Flat Bottom Plates and read on a SynergyNeo2 Biotek fluorescence plate reader. Fluorescence measurements were taken with 487 nm excitation, 528 nm emission from the bottom of the plate for 2 hours. Fluorescence curves show raw fluorescence images unless otherwise stated.
(§4) Dose response curves were fit on OriginLab graphing software using equation 1. A1 is the minimum asymptote, A2 is the maximum asymptote, X is the log of a given dosage, and p is the hill slope. The center of the curve is equal to Log x0, so the half response or EC 50=10^Logx0.
The limit of detection for the biosensor was tested by introducing a range of small molecules from 4 nM to 40 μM using a 50:1 TetR dimer/dsDNA ratio (FIGS. 3E and F). […] The dose response curve of the biosensor was further assessed using the EC 50 value, which represents the concentration of a drug or analyte needed to reach a half maximum output signal based on a protein-analyte interaction.
Detection limits were also considered using the standard definition of LOD which considers LOD to be equal to the fluorescence of the blank sample plus three times the standard deviation (Table 7 and Table 8). The detection limit was determined using the equation (39):
Here, Sbl is equal to the mean of the SM negative samples and kSbl is the number of standard deviations of the negative sample added. For the Doxy experiments, 8 replicates were run and k=3. […] The detection limit (bolded) was then determined as the lowest concentration corresponding to a fluorescence signal great than Sm (the mean of small molecule negative samples+3× the standard deviation).

MphR = MphR biosensor, lateral flow readout for erythromycin; assay type: biochemical; conditions: 15 minutes of cleavage
Method: as §1, with “Samples were incubated for 30 minutes at 37° C. on a thermocycler block.” left out
The robustness of the lateral flow readout scheme was further tested using the TF MphR to detect the antibiotic erythromycin. […] A closer look at the mean pixel intensity of the bands for the assays for 1, 0.5, 0.25, 0.05 μM and no SM confirm a decrease below 1 μM but show a readable signal in the ˜100 nM range (FIG. 14B). Lateral flow readout was also tested using the LacI-IPTG biosensor. A higher ratio between the IPTG+ and − samples were seen even with high concentrations of Lad, but a discernible difference in SM+ samples was still visualized (FIG. 15).

CymR = biological target: T2, CymR (Pseudomonas putida, UniProt O33453, A171V/S110G); assay type: biochemical; conditions: CymR biosensor, slope of kinetic curves
T2 construct: His tag; made in house
Method: as §2, §3, §4

[3] = EC 50, 10 μM TetR, 50:1 TetR dimer/dsDNA ratio, small molecule 4 nM to 40 μM
[4] = EC:50, 5 nM dsDNA, 500 nM TF (TetR), 24 nt gRNA, 1 h
[5] = EC:50, 50 nM dsDNA, 5 μM TF (TetR), 20 nt gRNA, 30 minutes of cleavage
[6] = EC:50, 50 nM dsDNA, 5 μM TF (TetR), 24 nt gRNA, 1 h
[7] = EC:50, 100 nM dsDNA, 2 μM TF (TetR), 1 h
[8] = EC:50, 100 nM dsDNA, 10 μM TF (TetR), 1 h, 50-fold TetR dimer:DNA
[9] = EC:50, 100 nM dsDNA, 20 μM TF (TetR), 1 h
[10] = 10 μM TetR, 50:1 TetR dimer/dsDNA ratio

T1 sequence (P04483 whole entry): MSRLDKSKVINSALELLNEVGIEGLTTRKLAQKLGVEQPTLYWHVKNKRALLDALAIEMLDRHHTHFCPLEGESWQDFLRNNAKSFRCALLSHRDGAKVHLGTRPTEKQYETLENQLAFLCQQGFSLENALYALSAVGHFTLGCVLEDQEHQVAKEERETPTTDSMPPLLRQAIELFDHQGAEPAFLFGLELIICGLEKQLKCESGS
T2 sequence (O33453 whole entry S110G/A171V): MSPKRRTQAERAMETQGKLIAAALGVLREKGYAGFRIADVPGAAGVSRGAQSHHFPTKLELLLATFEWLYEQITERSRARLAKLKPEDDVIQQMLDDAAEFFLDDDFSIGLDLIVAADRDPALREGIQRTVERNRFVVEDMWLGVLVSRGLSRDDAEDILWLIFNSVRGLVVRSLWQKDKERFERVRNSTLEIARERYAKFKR

Structure (SMILES) | EC50 (TetR [1]) [nM] | EC50 (TetR [2]; [3]) [nM] | EC50 (TetR [2]; [4]) | EC50 (TetR [2]; [5]) [nM] | EC50 (TetR [2]; [6]) [nM] | EC50 (TetR [2]; [7]) [nM] | EC50 (TetR [2]; [8]) [nM] | EC50 (TetR [2]; [9]) | second (test) band on lateral flow strip (TetR [1]) | also measured
C[S+](C)[O-] [DMSO] | – | – | – | – | – | – | – | – | – | effects on Cas12a cleavage at experimental levels (Cas12a): not detrimental
C[C@H]1c2cccc(O)c2C(=O)C2=C(O)[C@]3(O)C(=O)C(C(N)=O)=C(O)[C@@H](N(C)C)[C@@H]3[C@@H](O)[C@@H]21 [Doxy, doxycycline] | 27 | 766 | 87 nM and 88 nM | 430 | 1590 | 110 | 950 | 4000 nM and 4220 nM | – | –
CC[C@H]1OC(=O)[C@H](C)[C@@H](O[C@H]2C[C@@](C)(OC)[C@@H](O)[C@H](C)O2)[C@H](C)[C@@H](O[C@@H]2O[C@H](C)C[C@H](N(C)C)[C@H]2O)[C@](C)(O)C[C@@H](C)C(=O)[C@H](C)[C@@H](O)[C@]1(C)O [Erythromycin] | – | – | – | – | – | – | – | – | – | concentration range with readable signal (mean pixel intensity) (MphR): ~100 nM
CC(C)S[C@@H]1O[C@H](CO)[C@H](O)[C@H](O)[C@H]1O [IPTG, isopropyl β-D-1-thiogalactopyranoside] | – | – | – | – | – | – | – | – | little to no banding | –
Cc1c2c(c(O)c3c(O)cccc13)C(=O)[C@]1(O)C(=O)C(C(N)=O)=C(O)[C@@H](N(C)C)[C@@H]1C2 [aTc, anhydrotetracycline-HCl] | 380 | 4230 | 50 nM | 1510 | 1770 | 840 | 4420 | 10600 nM | strong second band | concentration showing a discernible signal (TetR [1]; lateral flow, 30 minutes of cleavage): 400 nM; concentration at complete loss of signal (TetR [2]; [10]): 0.4 µM; concentration giving maximum (near maximum) fluorescence output (TetR [2]; [10]): 10 µM; Fluorescence Mean (TetR [2]; 20 nt gRNA, Concentration 0.005 (unit not given)): 21303.25; Fluorescence Mean (TetR [2]; 20 nt gRNA, Concentration 0.01 (unit not given)): 21302; Fluorescence Mean (TetR [2]; 20 nt gRNA, Concentration 0.05 (unit not given)): 24918.25; Fluorescence Mean (TetR [2]; 20 nt gRNA, Concentration 0.1 (unit not given)): 32806; Fluorescence Mean (TetR [2]; 20 nt gRNA, Concentration 1 (unit not given)): 40622.5; Fluorescence Mean (TetR [2]; 24 nt gRNA, Concentration 0.005 (unit not given)): 9199.5; Fluorescence Mean (TetR [2]; 24 nt gRNA, Concentration 0.01 (unit not given)): 8795; Fluorescence Mean (TetR [2]; 24 nt gRNA, Concentration 0.05 (unit not given)): 12129.5; Fluorescence Mean (TetR [2]; 24 nt gRNA, Concentration 0.1 (unit not given)): 20059; Fluorescence Mean (TetR [2]; 24 nt gRNA, Concentration 1 (unit not given)): 30309.5; EC50 (TetR [2]; EC:50, 5 nM dsDNA, 500 nM TF (TetR), 20 nt gRNA, 30 minutes of cleavage): 51 nM
CC(C)c1ccc(C(=O)O)cc1 [cuminic acid] | – | – | – | – | – | – | – | – | – | linear region of cleavage rate vs SM concentration (calibration curve) (CymR): ≤ 50 µM
